Test results as given in patent US6348484B1, “Stereoisomeric indole compounds, process for the preparation of the same, and use thereof” (Lead Chemical Co., Ltd., priority 1997, dated 2002).

Columns and labels:
[1] = test system: lipid peroxidation of microsome in rat liver; assay: Inhibitory action against lipid peroxidation of microsome in rat liver (TBA reactive substances, absorption at 535 nm); format: biochemical
Method: 10 μl of microsome fraction (protein concentration; 30-50 mg/ ml) prepared from rat liver and 10 μl of a solution of a compound to be tested in ethanol are added to 0.5 ml of 0.1 M Tris hydrochloride buffer (pH7.5) containing 14 mM MgCl2, which is mixed and preincubated at 37° C. for 5 minutes. Then, 10 μl of 0.2M adenosine diphosphate, 10 μl of 12 mM FeSO4, 40 μl of NADPH reproduced system and distilled water are added to make 1 m1, mixed and reacted at 37° C. for 10 minutes.

Molecule: (1″S, 3″S) Martefragin A [(1″S, 3″S)-19]
- Inhibiting Concentration (IC50 μg/ml) ([1]; Example 7, rat liver microsome fraction, ADP/FeSO4/NADPH system, 37° C. for 10 minutes): 1.07 µg/mL
- Inhibiting Concentration (IC50 μg/ml) ([1]; Example 8, method of Example 7, deamino form compared with synthetic (1″S, 3″S) Martefragin A): 1.35 µg/mL

Molecule: CC[C@H](C)CCc1nc(COOCc2ccccc2)c(-c2c[nH]c3ccccc23)o1 [compound 55]
- melting point: 138.5 to 139.5 °C
